Source: patent US8637670B2, “Imidazo [4,5-C]quinoline derivatives and their use in the treatment of tumors and/or inflammation” (Piramal Enterprises Limited, priority 2009, dated 2014)

What was measured:
[1] = tested on: A2780; assay: Cytotoxicity, propidium iodide assay, A2780; assay type: cell-based; details: Homo sapiens; Ovarian, A2780, 48 hours treatment; read-out: IC50, C3a (A2780)
Description: (§1) The assay was designed as in the reference, Anticancer Drugs, 2002, 13, 1-8, the disclosure of which is incorporated by reference for the teaching of the assay.
(§2) Cells from cell lines as mentioned in the table given below were seeded at a density of 3000 cells/well in a white opaque 96-well plate. Following incubation at 37° C./5% CO2 for a period of 18-24 hours, the cells were treated with various concentrations (stock solution was prepared in DMSO and subsequent dilutions were made in media as per ATCC guidelines) of the compounds of Example 1-40 was for a period of 48 hours. At the end of treatment, the spent culture medium was discarded, the cells were washed with 1×PBS and 200 μl of 7 μg/ml propidium iodide was added to each well. The plates were frozen at −70° C. for at least 24 hours. For analysis, the plates were brought to RT, allowed to thaw and were read in PoleStar fluorimeter with the fluorescence setting. The percentage of viable cells in the non-treated set of wells was considered to be 100 and the percentage viability following treatment was calculated accordingly. IC50 values were calculated from graphs plotted using these percentages. Table 4 depicts the IC50 values of compounds of Example 1-40 in individual cell lines.
(§3) The abbreviations for the Cell Lines as used in Table 4 are: […]

[2] = tested on: U 373; assay: Cytotoxicity, propidium iodide assay, U 373; assay type: cell-based; details: Homo sapiens, U373 MG; Glioblastoma, U 373, 48 hours treatment; read-out: IC50, C7a (U 373)
Description: as §1, §2, §3

[3] = tested on: PC3; assay: Cytotoxicity, propidium iodide assay, PC3; assay type: cell-based; details: Homo sapiens, PC-3; Prostate, PC3, 48 hours treatment; read-out: IC50, C2a (PC3)
Description: as §1, §2, §3

[4] = tested on: H460; assay: Cytotoxicity, propidium iodide assay, H460; assay type: cell-based; details: Homo sapiens, NCI-H460; Lung, H460, 48 hours treatment; read-out: IC50, C1b (H460)
Description: as §1, §2, §3

[5] = tested on: OVCAR 3; assay: Cytotoxicity, propidium iodide assay, OVCAR 3; assay type: cell-based; details: Homo sapiens; Ovarian, OVCAR 3, 48 hours treatment; read-out: IC50, C3b (OVCAR 3)
Description: as §1, §2, §3

[6] = tested on: IL-6; assay: Human monocyte assay, LPS-stimulated IL-6 (ELISA); assay type: cell-based; details: human monocytes, 1 μg/ml LPS, 5 hours
Description: The assay was designed as in the reference, Physiol. Res., 2003, 52, 593-598, the disclosure of which is incorporated by reference for the teaching of the assay.
Peripheral blood mononuclear cells (hPBMC) were harvested from human blood and suspended in RPMI 1640 culture medium containing 10% FCS, 100 U/mL penicillin and […] streptomycin (assay medium). Monocytes in the hPBMCs were counted using a Coulter Counter following which the cells were resuspended at 2×10^5 monocytes/mL. A cell suspension containing 2×10^4 monocytes was aliquoted per well of a 96-well plate. Subsequently, the hPBMCs were incubated for 4-5 hours at 37° C. under 5% CO2 (During the incubation, the monocytes adhered to the bottom of 96-well plastic culture plate). Following the incubation, the non-adherent lymphocytes were washed with assay medium and the adherent monocytes re-fed with assay medium. After a 48-hour incubation period (37° C., 5% CO2), monocytes were pretreated with various concentrations of compounds of Example 1-40 (prepared in DMSO) or vehicle (0.5% DMSO) for 30 minutes and stimulated with 1 μg/ml LPS (Escherchia coli 0111:B4, Sigma Chemical Co., St. Louis, Mo.). The incubation was continued for 5 hours at 37° C., 5% CO2. Supernatants were harvested, assayed for IL-6 and TNF-α by ELISA as described by the manufacturer (BD Biosciences, USA). Dexamethasone (10 μM) was used as standard for this assay. The 50% inhibitory concentration (IC50) values were calculated by a nonlinear regression method. In all experiments, a parallel plate was run to ascertain the toxicity of compounds of Example 1-40. The toxicity was determined using the MTS assay as described in Am. J. Physiol. Cell Physiol., 2003, 285, C813-C822.

[7] = molecular target: T1, PI3Kα kinase (Homo sapiens, UniProt P42336); assay: PI3Kα assay (32P incorporation into phosphatidylinositol, TLC densitometry); assay type: biochemical; details: At 100 nM
T1 construct: purchased Millipore, USA
T1 sequence (P42336 whole entry): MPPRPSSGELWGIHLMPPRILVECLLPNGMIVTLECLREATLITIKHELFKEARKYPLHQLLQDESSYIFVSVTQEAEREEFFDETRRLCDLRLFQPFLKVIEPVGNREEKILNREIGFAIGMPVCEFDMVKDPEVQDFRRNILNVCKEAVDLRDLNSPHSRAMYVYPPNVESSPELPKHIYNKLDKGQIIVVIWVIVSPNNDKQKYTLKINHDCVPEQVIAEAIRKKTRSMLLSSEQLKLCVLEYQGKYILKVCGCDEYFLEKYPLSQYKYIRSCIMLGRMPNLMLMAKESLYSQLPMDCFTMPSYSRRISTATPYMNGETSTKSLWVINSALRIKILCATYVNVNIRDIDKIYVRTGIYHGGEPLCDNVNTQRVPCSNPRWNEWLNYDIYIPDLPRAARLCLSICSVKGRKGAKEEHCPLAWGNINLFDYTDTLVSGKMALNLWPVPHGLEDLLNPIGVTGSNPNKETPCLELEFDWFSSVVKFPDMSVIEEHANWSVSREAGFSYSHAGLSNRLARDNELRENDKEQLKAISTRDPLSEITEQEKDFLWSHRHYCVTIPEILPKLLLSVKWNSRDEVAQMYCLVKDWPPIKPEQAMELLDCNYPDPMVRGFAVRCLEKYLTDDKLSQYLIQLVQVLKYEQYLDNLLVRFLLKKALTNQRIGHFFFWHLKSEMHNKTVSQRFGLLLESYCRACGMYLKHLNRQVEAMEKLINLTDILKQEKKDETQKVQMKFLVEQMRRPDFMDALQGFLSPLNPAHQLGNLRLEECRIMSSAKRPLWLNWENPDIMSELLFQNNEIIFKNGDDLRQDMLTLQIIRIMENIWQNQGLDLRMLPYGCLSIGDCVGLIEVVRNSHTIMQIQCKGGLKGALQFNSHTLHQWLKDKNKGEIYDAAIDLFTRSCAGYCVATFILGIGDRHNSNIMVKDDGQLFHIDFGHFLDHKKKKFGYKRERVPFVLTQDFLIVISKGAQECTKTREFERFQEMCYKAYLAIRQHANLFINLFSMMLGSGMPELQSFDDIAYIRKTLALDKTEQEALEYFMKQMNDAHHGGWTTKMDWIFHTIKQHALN
T1 sequence (P27986 whole entry partner): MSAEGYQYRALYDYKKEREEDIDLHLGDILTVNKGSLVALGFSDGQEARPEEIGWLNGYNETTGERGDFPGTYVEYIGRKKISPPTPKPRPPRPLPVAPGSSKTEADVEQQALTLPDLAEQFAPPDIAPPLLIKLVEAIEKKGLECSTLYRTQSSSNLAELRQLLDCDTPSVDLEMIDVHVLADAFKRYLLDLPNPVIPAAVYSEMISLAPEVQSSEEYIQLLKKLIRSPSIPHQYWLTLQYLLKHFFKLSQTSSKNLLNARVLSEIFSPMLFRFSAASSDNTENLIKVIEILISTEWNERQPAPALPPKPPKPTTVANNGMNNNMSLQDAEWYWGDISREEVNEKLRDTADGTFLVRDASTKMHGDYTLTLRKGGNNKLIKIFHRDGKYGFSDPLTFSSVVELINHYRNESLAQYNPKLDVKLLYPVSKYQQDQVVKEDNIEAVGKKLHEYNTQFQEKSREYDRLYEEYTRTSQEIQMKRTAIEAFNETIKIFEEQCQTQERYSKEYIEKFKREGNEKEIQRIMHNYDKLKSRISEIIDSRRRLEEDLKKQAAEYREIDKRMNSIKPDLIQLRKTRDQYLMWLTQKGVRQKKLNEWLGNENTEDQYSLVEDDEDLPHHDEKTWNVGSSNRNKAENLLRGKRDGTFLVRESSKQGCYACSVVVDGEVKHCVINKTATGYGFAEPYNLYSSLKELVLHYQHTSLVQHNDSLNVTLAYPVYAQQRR
Description: The assay was designed as in the reference, Cell, 2006, 125, 733-47 (Supplemental Data), the disclosure of which is incorporated by reference for the teaching of the assay.
The kinase reaction was carried out in a 25 μL volume in a 1.5 mL microcentrifuge tube. The reaction mixture consisted of kinase buffer (10 mM Hepes, pH 7.5, 50 mM MgCl2), 20 ng PI3Kα kinase (Millipore, USA), 12.5 μg phosphatidylinositol (PI), 10 μM ATP and 1 μCi ^32γ P dATP. Compounds of Example 1-40 were added at concentrations (stock solution was prepared in DMSO and subsequent dilutions were made in kinase buffer) as mentioned in the table. The reaction mixture was incubated at 30° C. for 20 minutes and was terminated by adding 1:1 mixture of MeOH and chloroform. The tube contents were mixed on a vortex mixer and centrifuged at 10000 rpm for 2 minutes. 10 μL of the organic (lower) phase was spotted on to a TLC plate (silica, mobile phase: n-propanol and 2 M glacial acetic acid in 65:35 ratio). The plates were dried and exposed to an X-ray film. The bands appearing as a result of ^32γ P incorporation in PI were quantitated using the QuantityOne (BioRad, USA) densitometry program. PI-103 (Calbiochem, USA) was used as a standard.

[8] = tested on: A549; assay: Cytotoxicity, propidium iodide assay, A549; assay type: cell-based; details: Homo sapiens; Lung, A549, 48 hours treatment; read-out: IC50, C1a (A549)
Description: as §1, §2, §3

[9] = tested on: HCT116; assay: Cytotoxicity, propidium iodide assay, HCT116; assay type: cell-based; details: Homo sapiens, HCT-116; Colon, HCT116, 48 hours treatment; read-out: IC50, C4a (HCT116)
Description: as §1, §2, §3

[10] = tested on: PANC 1; assay: Cytotoxicity, propidium iodide assay, PANC 1; assay type: cell-based; details: Homo sapiens; Pancreatic, PANC 1, 48 hours treatment; read-out: IC50, C5a (PANC 1)
Description: as §1, §2, §3

Row | Structure (SMILES) | IC50 [1] | IC50 [6] | IC50 [8] | IC50 [9] | other results
1 | CC(C)(C#N)c1ccc(-n2c(=O)n(S(=O)(=O)c3ccc(OC(F)(F)F)cc3)c3cnc4ccc(Br)cc4c32)cc1 [Example 1, 2-(4-(8-Bromo-2-oxo-3-(4-(trifluoromethoxy)phenylsulfonyl)-2,3-dihydro-1H-imidazo[4,5-c]quinolin-1-yl)phenyl)-2-methylpropanenitrile] | ≤ 1 µM | 10 to 30 µM |  |  | IC50 [2]: > 3 µM; IC50 [3]: 1 to 3 µM; IC50 [4]: 1 to 3 µM; IC50 [5]: 1 to 3 µM
2 | CC(C)(C#N)c1ccc(-n2c(=O)n(S(=O)(=O)c3ccccc3)c3cnc4ccc(Br)cc4c32)cc1 [Example 7, 2-(4-(8-Bromo-2-oxo-3-(phenylsulfonyl)-2,3-dihydro-1H-imidazo[4,5-c]quinolin-1-yl)phenyl)-2-methylpropanenitrile] |  |  |  |  | inhibition at 0.1 µM [7]: 10 to 50%
3 | Cc1ccc(S(=O)(=O)n2c(=O)n(-c3ccc(C(C)(C)C#N)cc3)c3c4cc(Br)ccc4ncc32)cc1 [Example 8, 2-(4-(8-Bromo-2-oxo-3-tosyl-2,3-dihydro-1H-imidazo[4,5-c]quinolin-1-yl)phenyl)-2-methylpropanenitrile] |  |  |  |  | inhibition at 0.1 µM [7]: 10 to 50%
4 | CC(C)(C#N)c1ccc(-n2c(=O)n(S(=O)(=O)c3cccs3)c3cnc4ccc(Br)cc4c32)cc1 [Example 9, 2-(4-(8-Bromo-2-oxo-3-(thiophen-2-ylsulfonyl)-2,3-dihydro-1H-imidazo[4,5-c]quinolin-1-yl)phenyl)-2-methylpropanenitrile] | ≤ 1 µM | 10 to 30 µM | 1 to 3 µM | > 3 µM | IC50 [10]: > 3 µM
5 | CC(C)(C#N)c1ccc(-n2c(=O)n(S(=O)(=O)c3cccc(F)c3)c3cnc4ccc(Br)cc4c32)cc1 [Example 10, 2-(4-(8-Bromo-3-(3-fluorophenylsulfonyl)-2-oxo-2,3-dihydro-1H-imidazo[4,5-c]quinolin-1-yl)phenyl)-2-methylpropanenitrile] | 1 to 3 µM | > 30 µM | 1 to 3 µM | 1 to 3 µM | IC50 [10]: > 3 µM
6 | CC(C)(C#N)c1ccc(-n2c(=O)n(S(=O)(=O)c3cccc4cccnc34)c3cnc4ccc(Br)cc4c32)cc1 [Example 11, 2-(4-(8-Bromo-2-oxo-3-(quinolin-8-ylsulfonyl)-2,3-dihydro-1H-imidazo[4,5-c]quinolin-1-yl)phenyl)-2-methylpropanenitrile] | > 3 µM | > 30 µM | > 3 µM | > 3 µM | IC50 [10]: > 3 µM
7 | CC(=O)c1ccc(S(=O)(=O)n2c(=O)n(-c3ccc(C(C)(C)C#N)cc3)c3c4cc(Br)ccc4ncc32)cc1 [Example 12, 2-(4-(3-(4-Acetylphenylsulfonyl)-8-bromo-2-oxo-2,3-dihydro-1H-imidazo[4,5-c]quinolin-1-yl)phenyl)-2-methylpropanenitrile] | 1 to 3 µM | > 30 µM | 1 to 3 µM | > 3 µM | IC50 [3]: > 3 µM; IC50 [4]: 1 to 3 µM
8 | COc1cccc(S(=O)(=O)n2c(=O)n(-c3ccc(C(C)(C)C#N)cc3)c3c4cc(Br)ccc4ncc32)c1 [Example 14, 2-(4-(8-Bromo-3-(3-methoxyphenylsulfonyl)-2-oxo-2,3-dihydro-1H-imidazo[4,5-c]quinolin-1-yl)phenyl)-2-methylpropanenitrile] |  | 1 to 10 µM |  |  | 
9 | CC(C)(C#N)c1ccc(-n2c(=O)n(S(=O)(=O)c3ccccc3C#N)c3cnc4ccc(Cl)cc4c32)cc1 [Example 20, 2-(8-Chloro-1-(4-(2-cyanopropan-2-yl)phenyl)-2-oxo-1H-imidazo[4,5-c]quinolin-3(2H)-ylsulfonyl)benzonitrile] |  |  |  |  | inhibition at 0.1 µM [7]: 10 to 50%
10 | Cc1cccc(S(=O)(=O)n2c(=O)n(-c3ccc(C(C)(C)C#N)cc3)c3c4cc(C)ccc4ncc32)c1 [Example 21, 2-Methyl-2-(4-(8-methyl-2-oxo-3-(m-tolylsulfonyl)-2,3-dihydro-1H-imidazo[4,5-c]quinolin-1-yl)phenyl)propanenitrile] |  | 1 to 10 µM | > 3 µM | > 3 µM | 
11 | Cc1ccc2ncc3c(c2c1)n(-c1ccc(C(C)(C)C#N)cc1)c(=O)n3S(=O)(=O)c1cccc(F)c1 [Example 22, 2-(4-(3-(3-Fluorophenylsulfonyl)-8-methyl-2-oxo-2,3-dihydro-1H-imidazo[4,5-c]quinolin-1-yl)phenyl)-2-methylpropanenitrile] |  | 10 to 30 µM | > 3 µM | > 3 µM | 
12 | Cc1ccc2ncc3c(c2c1)n(-c1ccc(C(C)(C)C#N)cc1)c(=O)n3S(=O)(=O)c1cc([N+](=O)[O-])ccc1C [Example 23, 2-Methyl-2-(4-(8-methyl-3-(2-methyl-5-nitrophenylsulfonyl)-2-oxo-2,3-dihydro-1H-imidazo[4,5-c]quinolin-1-yl)phenyl)propanenitrile] |  |  | > 3 µM | > 3 µM | 
13 | Cc1ccc2ncc3c(c2c1)n(-c1ccc(C(C)(C)C#N)cc1)c(=O)n3S(=O)(=O)c1cccc2cccnc12 [Example 24, 2-Methyl-2-(4-(8-methyl-2-oxo-3-(quinolin-8-ylsulfonyl)-2,3-dihydro-1H-imidazo[4,5-c]quinolin-1-yl)phenyl)propanenitrile] | > 3 µM |  |  | > 3 µM | IC50 [3]: > 3 µM; IC50 [4]: > 3 µM
14 | COc1ccc(NC(=O)n2c(=O)n(-c3ccc(C(C)(C)C#N)cc3)c3c4cc(Br)ccc4ncc32)cc1 [Example 31, 8-Bromo-1-(4-(2-cyanopropan-2-yl)phenyl)-N-(4-methoxyphenyl)-2-oxo-1H-imidazo[4,5-c]quinoline-3(2H)-carboxamide] | > 3 µM |  | 1 to 3 µM | > 3 µM | IC50 [10]: > 3 µM
15 | CC(C)(C#N)c1ccc(-n2c(=O)n(C(=O)NCc3ccccc3)c3cnc4ccc(Br)cc4c32)cc1 [Example 32, N-benzyl-8-bromo-1-(4-(2-cyanopropan-2-yl)phenyl)-2-oxo-1H-imidazo[4,5-c]quinoline-3(2H)-carboxamide] |  | > 30 µM |  |  | inhibition at 0.1 µM [7]: 10 to 50%
16 | C/C=C/C(=O)n1c(=O)n(-c2ccc(C(C)(C)C#N)cc2)c2c3cc(C)ccc3ncc21 [Example 39, (E)-2-(4-(3-But-2-enoyl-8-methyl-2-oxo-2,3-dihydro-1H-imidazo[4,5-c]quinolin-1-yl)phenyl)-2-methylpropanenitrile] |  | ≤ 1 µM | > 3 µM | > 3 µM | 
